Experimental data as given in PubChem BioAssay (NCI).
Values joined by “and” are separate entries in the source; they are usually repeats but may differ in a detail not shown here. Equal values may be shown once.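 Exposure lasted 48 hours, with cells grown in 96-well plates and compounds tested at five concentrations. GI50: concentration for 50% inhibition of growth. TGI: concentration producing complete growth inhibition.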

Experiments:
Assay in all cases: NCI anticancer screen, dose series, 48 h
[1] = system: CCRF-CEM leukemia
[2] = system: IGROV1 ovarian
[3] = system: K-562 leukemia
[4] = system: OVCAR-3 ovarian
[5] = system: RPMI-8226 leukemia
[6] = system: SF-295 CNS
[7] = system: SK-MEL-2 melanoma
[8] = system: U251 CNS
[9] = system: UACC-62 melanoma
[10] = system: UO-31 renal

SMILES	GI50 [1] [µM]	TGI [1] [µM]	GI50 [2] [µM]	TGI [2]	GI50 [3] [µM]	TGI [3]	GI50 [4] [µM]	TGI [4]	GI50 [5] [µM]	TGI [5]	GI50 [6] [µM]	TGI [6]	GI50 [7] [µM]	TGI [7]	GI50 [8] [µM]	TGI [8] [µM]	GI50 [9] [µM]	TGI [9]	GI50 [10] [µM]	TGI [10]
NC(=S)N/N=C/c1ncccc1N	1.14	> 58.4	0.807	> 100 µM	4.82	> 93.4 µM	2.54	> 56.6 µM	1.45	> 100 µM	0.654	10.7 µM and 5.07 µM	75.7	> 100 µM	0.659	> 100	0.338	7.67 µM and > 10 µM	0.293	3.69 µM and 1.41 µM
C[C@]12CCC3[C@@H](CC[C@@H]4c5nonc5CC[C@]34C)C1C/C(=N/O)C2=O (stereo partly drawn)	–	> 100	–	> 100 µM	–	> 100 µM	–	> 100 µM	–	> 100 µM	–	> 100 µM	–	52 µM	–	> 100	–	> 100 µM	–	> 100 µM
O=C(c1ccccc1)c1cccc(C(=O)c2ccccc2)c1	–	> 100	–	> 100 µM	–	> 100 µM	–	> 100 µM	–	> 100 µM	–	> 100 µM	–	> 100 µM	–	> 100	–	> 100 µM	–	> 100 µM
CN(/N=C/c1cccc2cccnc12)c1ccccc1	–	> 100	–	> 100 µM	–	> 100 µM	–	68 µM	–	> 100 µM	–	> 100 µM	–	> 100 µM	–	> 100	–	> 100 µM	–	> 100 µM
COc1ccc(/C=C\c2cc(OC)c(OC)c(OC)c2)cc1OC	0.0791	–	0.0537	40.4 µM and 21.5 µM	0.0329	40.4 µM and 15.7 µM	0.0543	0.256 µM and 0.801 µM	0.224	12.4 µM and 15.8 µM	0.0672	40.4 µM and > 100 µM	0.121	40.4 µM and > 100 µM	0.0975	–	0.036	40.4 µM and > 100 µM	0.805	40.4 µM and 50.3 µM
Cc1ccc(S(=O)(=O)Nc2cccc3[nH]c(C(F)(F)F)nc23)cc1	1.16	> 100	0.832	> 100 µM	0.269	> 100 µM	0.426	> 100 µM	0.772	13.7 µM	0.283	1.54 µM	0.321	3.54 µM	0.466	21.4	0.62	> 54 µM	1.3	> 57.5 µM
COC(=O)c1cc(Cl)ccc1NC(=O)c1ccc([N+](=O)[O-])cc1	–	80.4	–	57.8 µM	–	> 100 µM	–	31.4 µM	–	69.4 µM	–	6.1 µM	–	> 100 µM	–	22.2	–	66.5 µM	–	38.7 µM
C=C1c2[nH]c3c([N+](=O)[O-])c(OC)ccc3c2CCN1C(C)=O	–	> 100	–	> 100 µM	–	> 100 µM	–	> 100 µM	–	> 100 µM	–	> 100 µM	–	> 100 µM	–	> 100	–	> 100 µM	–	> 100 µM
CN1CC[C@@H](c2c(O)cc(O)c3c(=O)cc(-c4ccccc4Cl)oc23)[C@@H]1CO	0.259	> 3.13	0.282	> 10 µM	0.297	> 2.58 µM	0.278	2.17 µM	0.362	2.73 µM	0.335	> 10 µM	0.228	0.594 µM	0.258	> 10	0.184	0.578 µM	0.268	> 2.99 µM
O=CC1CCCc2ccccc21 (stereo not drawn)	–	> 72	–	> 100 µM	–	> 100 µM	–	> 100 µM	–	> 65.8 µM	–	> 100 µM	–	> 100 µM	–	> 59.4	–	> 100 µM	–	> 100 µM
O=C(NN1C(=O)CSC12CCCC2)c1[nH]c2ccc(Br)cc2c1-c1ccccc1	40.1	> 100	21.8	> 100 µM	18.7	43.2 µM	18.8	56.7 µM	30.2	86.5 µM	24.2	69.7 µM	69	> 100 µM	38.2	> 100	19.7	> 100 µM	59.1	> 100 µM
